# Test results: ChEMBL document CHEMBL6120938, “Covalent small-molecule inhibitors of SARS-CoV-2 Mpro: Insights into their design, classification, biological activity, and binding interactions” (Eur J Med Chem, 2024)
# Where a SMILES comes first, the peptide text is derived from it. The star is where a group is joined. Octanoyl = CCCCCCCC(=O)*; Boc = CC(C)(C)OC(=O)*
# System: not listed separately
# Assay: Inhibition of SARS-CoV-2 Main protease using DABCYL-KTSAVLQ-SGFRKM-E(EDANS) as substrate pre-treated for 15 mins and measured for 60 mins by FRET assay
# Parameters: species or system Severe acute respiratory syndrome coronavirus 2
# Conditions: not given
row,Compound,IC50 [µM]
1,O=Cc1ncc(Br)cc1OCc1ccc(Cl)c(Br)c1,6
2,O=Cc1ncc(Br)cc1OCc1ccc2ccccc2c1,26
3,Cc1ccc(COc2cc(Br)cnc2C=O)cc1[N+](=O)[O-],12
4,O=Cc1ncc(Br)cc1OCc1ccc(Cl)c([N+](=O)[O-])c1,1
5,O=Cc1ncc(Br)cc1OCc1cc(Br)ccc1Cl,6

# Target: T1, Replicase polyprotein 1ab (Severe acute respiratory syndrome coronavirus 2, UniProt P0DTD1)
# Assay: Inhibition of SARS-CoV-2 3CL protease by luciferase reporter assay
# Conditions: not given
row,Compound,IC50 [µM]
1,O=C(CCl)Nc1sc(-c2ccccc2)cc1C(=O)NC1CC1,2.36
2,C=CC(=O)O[C@H](C(=O)NCc1cccc(OC)c1OC)c1ccc([N+](=O)[O-])cc1,9.39
3,C=CC(=O)O[C@H](CC)C(=O)NCCc1c[nH]c2ccccc12,139
4,C=CC(=O)N(CCC)[C@H](C(=O)NCc1ccc2c(c1)OCO2)c1cccc(O)c1,1

# System: SARS-CoV-2
# Assay: Antiviral activity against SARS-CoV-2 infected in African green monkey Vero cells assessed as reduction in viral replication incubated for 72 hrs by RT-qPCR analysis
# Type: functional, organism-based
# Conditions: Severe acute respiratory syndrome coronavirus 2, Vero
row,Compound,EC50 [µM]
1,CCC[C@H](NC(=O)[C@@H]1[C@H]2CCC[C@H]2CN1C(=O)[C@@H](NC(=O)[C@@H](NC(=O)c1cnccn1)C1CCCCC1)C(C)(C)C)C(=O)C(=O)NC1CC1,1.31

# Target: T1, Replicase polyprotein 1ab
# Assay: Inhibition of SARS-CoV-2 3CL protease using DabcylKTSAVLQSGFRKME-Edans amide as substrate measured for 1 hrs by FRET assay
# Conditions: not given
row,Compound,IC50 [µM]
1,CC(C)C[C@H](NC(=O)OC[C@@H]1C[C@H]1c1cccc(F)c1)C(=O)N[C@H](C=O)CC1CCNC1=O (stereo partly drawn),0.14
2,CC(C)C[C@H](NC(=O)OC[C@@H]1C[C@H]1c1cccc(F)c1)C(=O)N[C@@H](CC1CCNC1=O)C(O)S(=O)(=O)O (stereo partly drawn),0.14
3,COc1ccccc1[C@@H]1C[C@H]1COC(=O)N[C@@H](CC(C)C)C(=O)N[C@H](C=O)CC1CCNC1=O (stereo partly drawn),0.14
4,COc1ccccc1[C@@H]1C[C@H]1COC(=O)N[C@@H](CC(C)C)C(=O)N[C@@H](CC1CCNC1=O)C(O)S(=O)(=O)O (stereo partly drawn),0.14

# System: SARS-CoV-2
# Assay: Antiviral activity against SARS-CoV-2 infected in Vero E6 cells assessed as reduction in viral replication
# Type: functional, organism-based
# Conditions: Severe acute respiratory syndrome coronavirus 2, Vero C1008
row,Compound,EC50 [µM]
1,O=C1c2ccccc2CCC1CNCCc1ccc(O)cc1 (stereo not drawn),24.1
2,CN(C)C(=O)COc1ccc(-c2cccc3[nH]ncc23)cc1C=O,2.5
3,COc1cc(-c2cccc3[nH]ncc23)cc(C=O)c1OCC(=O)N(C)C,5.19
4,O=C[C@H](C[C@@H]1CCNC1=O)NC(=O)[C@@H]1[C@H]2CCC[C@H]2CN1C(=O)CCc1ccc(Cl)cc1Cl,0.54
5,Cc1cc(C(=O)N[C@@H](C)C(=O)N[C@H](C(=O)N[C@@H](CC(C)C)[C@H](/C=C/C(=O)OCc2ccccc2)C[C@@H]2CCNC2=O)C(C)C)no1,16.8
6,Cc1ccc(C(=O)C(C)CN2CCCCC2)cc1 (stereo not drawn) [TOLPERISONE],19.2

# Target: not listed separately
# Assay: Binding affinity to SARS-CoV-2 Main protease assessed as inhibition constant
# Parameters: species or system Severe acute respiratory syndrome coronavirus 2
# Conditions: not given
row,Compound,Ki [µM]
1,CN(C)C(=O)COc1ccc(-c2cccc3[nH]ncc23)cc1C=O,0.037
2,COc1cc(-c2cccc3[nH]ncc23)cc(C=O)c1OCC(=O)N(C)C,0.02
3,COc1cc(-c2cccc3[nH]ncc23)cc(C=O)c1OCC(=O)N1CCC(c2cccc(C(=O)N(C)C)c2)C1 (stereo not drawn),0.045

# System: not listed separately
# Assay: Inhibition of MERS-CoV 3CLpro by FRET assay
# Parameters: species or system Middle East respiratory syndrome-related coronavirus
# Conditions: not given
row,Compound,IC50 [µM]
1,CC(C)C[C@H](NC(=O)OC[C@@H]1C[C@H]1c1cccc(F)c1)C(=O)N[C@H](C=O)CC1CCNC1=O (stereo partly drawn),0.07
2,CC(C)C[C@H](NC(=O)OC[C@@H]1C[C@H]1c1cccc(F)c1)C(=O)N[C@@H](CC1CCNC1=O)C(O)S(=O)(=O)O (stereo partly drawn),0.07
3,COc1ccccc1[C@@H]1C[C@H]1COC(=O)N[C@@H](CC(C)C)C(=O)N[C@H](C=O)CC1CCNC1=O (stereo partly drawn),0.07
4,COc1ccccc1[C@@H]1C[C@H]1COC(=O)N[C@@H](CC(C)C)C(=O)N[C@@H](CC1CCNC1=O)C(O)S(=O)(=O)O (stereo partly drawn),0.07

# System: not listed separately
# Assay: Inhibition of SARS-Cov-2 Main protease by FRET assay
# Parameters: species or system Severe acute respiratory syndrome coronavirus 2
# Conditions: not given
row,Compound,IC50 [µM]
1,CCOC(=O)/C=C/[C@H](C[C@@H]1CCNC1=O)NC(=O)[C@@H](CC(=O)[C@@H](NC(=O)c1cc(C)on1)C(C)C)Cc1ccc(F)cc1,47
2,CCOC(=O)/C=C/[C@H](C[C@@H]1CCNC1=O)NC(=O)[C@H](CC#N)n1cccc(NC(=O)c2cc(C)on2)c1=O,101

# System: not listed separately
# Assay: Inhibition of recombinant SARS-CoV-2 Wuhan-Hu-1 main protease extracted from Escherichia coli cells using Dabcyl-KTSAVLQSGFRKME-Edans as substrate incubated for 60 mins by FRET assay
# Parameters: species or system Severe acute respiratory syndrome coronavirus 2
# Conditions: not given
row,Compound,IC50 [µM]
1,CC(=O)NCC(=O)N[C@@H](Cc1ccccc1)C(=O)N[C@H](C=O)Cc1c[nH]cn1 (Ac-Gly-Phe-His-aldehyde),2.51
2,CC(C)(C)OC(=O)NCC(=O)N[C@@H](Cc1ccccc1)C(=O)N[C@H](C=O)Cc1c[nH]cn1 (Boc-Gly-Phe-His-aldehyde),6.49
3,CCCCCCCC(=O)NCC(=O)N[C@@H](Cc1ccccc1)C(=O)N[C@H](C=O)Cc1c[nH]cn1 (Octanoyl-Gly-Phe-His-aldehyde),2.37

# Target: T1, Replicase polyprotein 1ab
# Assay: Inhibition of SARS-CoV-2 3CL protease
# Conditions: not given
row,Compound,IC50 [µM]
1,C=CS(=O)(=O)N(c1ccc(C(C)(C)C)cc1)C(C(=O)NCCc1cccc(OC)c1)c1cccnc1 (stereo not drawn),0.24
2,CC(C)C[C@H](NC(=O)OCC1CCC(F)(F)CC1)C(=O)N[C@@H](C[C@@H]1CCNC1=O)C(O)S(=O)(=O)O (stereo partly drawn),0.1
3,C=CS(=O)(=O)N(c1ccc(C(C)(C)C)cc1)C(C(=O)NCCc1cccc(Cl)c1)c1cccnc1 (stereo not drawn),0.00017
4,S=C(S)NCc1cccnc1,0.03
5,CC(C)C[C@H](NC(=O)OC[C@@H]1C[C@H]1C1CCCCC1)C(=O)N[C@@H](C[C@H]1CCNC1=O)[C@H](O)S(=O)(=O)O,0.28
6,CCC1CCC(OC(=O)N[C@@H](CC(C)C)C(=O)N[C@H](C=O)C[C@@H]2CCNC2=O)CC1 (stereo partly drawn),1.1
7,CCC1(OC(=O)N[C@@H](CC(C)C)C(=O)N[C@H](C=O)C[C@@H]2CCNC2=O)COCOC1,0.45

# Target: T1, Replicase polyprotein 1ab
# Assay: Inhibition of N-terminal 6His-tagged SARS-CoV-2 3CL protease using FAM-SAVLQ as substrate pre-incubated for 15 mins followed by substrate addition and incubated for 30 mins by FRET analysis
# Conditions: not given
row,Compound,IC50 [µM]
1,CC(C)C[C@H](NC(=O)OC[C@@H]1C[C@H]1C1CCCCC1)C(=O)N[C@@H](C[C@H]1CCNC1=O)[C@H](O)S(=O)(=O)O,0.17
2,COc1ccc([C@@H]2C[C@H]2COC(=O)N[C@@H](CC(C)C)C(=O)N[C@@H](C[C@H]2CCNC2=O)[C@@H](O)S(=O)(=O)O)cc1,0.17
3,CC(C)C[C@H](NC(=O)OC[C@@H]1C[C@H]1C1CCC(F)(F)CC1)C(=O)N[C@@H](C[C@H]1CCNC1=O)[C@H](O)S(=O)(=O)O,0.17
4,CC(C)C[C@H](NC(=O)OC[C@@H]1C[C@H]1c1ccccc1)C(=O)N[C@H](C=O)C[C@H]1CCNC1=O,0.17
5,CCC[C@@H]1C[C@H]1COC(=O)N[C@@H](CC(C)C)C(=O)N[C@@H](C[C@H]1CCNC1=O)[C@@H](O)S(=O)(=O)O,0.17
6,CC(C)C[C@H](NC(=O)OC[C@@H]1C[C@H]1c1cccc(Cl)c1)C(=O)N[C@H](C=O)C[C@H]1CCNC1=O,0.17

# System: SARS-CoV-2
# Assay: Antiviral activity against SARS-CoV-2 infected in Vero E6 cells assessed as inhibition of viral replication
# Type: functional, organism-based
# Conditions: Severe acute respiratory syndrome coronavirus 2, Vero C1008
row,Compound,EC50 [µM]
1,CCOC(=O)/C=C/[C@H](C[C@@H]1CCNC1=O)NC(=O)[C@@H](CC(=O)[C@@H](NC(=O)c1cc(C)on1)C(C)C)Cc1ccc(F)cc1,1.87
2,COc1cc(O)c2c(c1)O[C@H](c1cc(O)c(O)c(O)c1)[C@@H](O)C2=O,8
3,COc1cc(O)c2c(=O)c(O)c(-c3cc(O)c(O)c(O)c3)oc2c1,8

# System: not listed separately
# Assay: Inhibition of SARS-CoV-2 Main protease
# Parameters: species or system Severe acute respiratory syndrome coronavirus 2
# Conditions: not given
row,Compound,IC50 [µM]
1,CCOC(=O)/C=C/[C@H](C[C@@H]1CCNC1=O)NC(=O)[C@@H](CC(=O)[C@@H](NC(=O)c1cc(C)on1)C(C)C)Cc1ccc(F)cc1,68
2,O=C(Oc1cncc(Cl)c1)c1cccs1,0.081
3,O=C[C@H](C[C@@H]1CCNC1=O)NC(=O)[C@H](CC1CC1)NC(=O)OCc1ccccc1,0.13
4,COc1cccc2[nH]c(C(=O)N[C@@H](CC(C)C)C(=O)N[C@H](C=O)C[C@@H]3CCNC3=O)cc12,0.13
5,CC(C)C[C@H](NC(=O)O[C@@H](C)c1ccccc1)C(=O)N[C@H](C=O)C[C@@H]1CCNC1=O,0.13
6,O=C[C@H](C[C@@H]1CCNC1=O)NC(=O)[C@H](CC1CC1)NC(=O)OCc1cccc(F)c1,0.014
7,CC(C)C[C@H](NC(=O)OCc1cccc(F)c1)C(=O)N[C@H](C=O)C[C@@H]1CCNC1=O,0.13
8,C=CC(=O)N(c1ccc(C(C)(C)C)cc1)C(C(=O)NC(C)(C)C)c1cccnc1 (stereo not drawn),2.95
9,CC(C)C[C@H](NC(=O)[C@@H](NC(=O)C1CCCCC1)C(C)C)C(=O)N[C@H](C=O)C[C@@H]1CCCNC1=O,0.24
10,COc1cc(O)c2c(c1)O[C@H](c1cc(O)c(O)c(O)c1)[C@@H](O)C2=O,0.26
11,COc1cc(O)c2c(=O)c(O)c(-c3cc(O)c(O)c(O)c3)oc2c1,0.3
12,COc1cccc2[nH]c(C(=O)N3C[C@H]4[C@@H]([C@H]3C(=O)N[C@@H](C[C@@H]3CCNC3=O)C(=O)c3nc5ccccc5s3)C4(C)C)cc12,0.055
13,CCOC(=O)/C=C/[C@H](C[C@@H]1CCNC1=O)NC(=O)[C@@H](CC(=O)[C@@H](NC(=O)OCc1ccccc1)[C@H](C)OC(C)(C)C)CC(C)O (stereo partly drawn),0.151
14,CCCCC1CCC(OC(=O)N[C@@H](CC(C)C)C(=O)N[C@H](C=O)C[C@H]2CCNC2=O)CC1 (stereo partly drawn),0.13
15,C=CC(=O)N(c1ccc(C(C)(C)C)cc1)C(C(=O)NC)c1cccnc1 (stereo not drawn),2.86
16,CC(C)C[C@H](NC(=O)OC(c1ccccc1)C1CCC(F)(F)CC1)C(=O)N[C@H](C=O)C[C@H]1CCNC1=O (stereo partly drawn),0.13
17,CC(C)C[C@H](NC(=O)OC(C)(C)C1CCC(F)(F)CC1)C(=O)N[C@@H](C[C@H]1CCNC1=O)C(O)S(=O)(=O)O (stereo partly drawn),0.125
18,C=CC(=O)N(c1ccc(C(C)(C)C)cc1)C(C(=O)NCCSC)c1cccnc1 (stereo not drawn),2.86
19,[2H]c1c([2H])c([2H])c(COC(C)N[C@@H](CC(C)C)C(=O)N[C@H](C=O)C[C@@H]2CCNC2=O)c([2H])c1[2H] (stereo partly drawn),0.16
20,C=CC(=O)N(c1ccc(C(C)(C)C)cc1)C(C(=O)NCc1ccccc1)c1cccnc1 (stereo not drawn),2.86
21,C=CC(=O)N(c1ccc(C(C)(C)C)cc1)C(C(=O)NCCc1cccc(F)c1)c1cccnc1 (stereo not drawn),2.86
22,C=CC(=O)N(c1ccc(C(C)(C)C)cc1)C(C(=O)NCCOC)c1cccnc1 (stereo not drawn),2.86
23,CCCCCCNC(=O)n1cc(F)c(=O)[nH]c1=O [CARMOFUR],0.018
24,COc1cccc2[nH]c(C(=O)N[C@@H](CC(C)C)C(=O)N[C@@H](C[C@@H]3CCNC3=O)C(=O)COP(=O)(O)O)cc12 [LUFOTRELVIR],0.009
25,COc1cccc2[nH]c(C(=O)N[C@@H](CC(C)C)C(=O)N[C@@H](C[C@@H]3CCNC3=O)C(=O)CO)cc12 [PF-00835231],0.6
